The text below walks through data of patent US10377753B2, “Substituted 4-azaindoles and their use as GluN2B receptor modulators” (Janssen Pharmaceutica NV, priority 2015, dated 2019).

pIC50: −log10 of the molar value.

cloned human NR1/NR2B ion channels, sequence (Q13224 27-1484, other chains not shown): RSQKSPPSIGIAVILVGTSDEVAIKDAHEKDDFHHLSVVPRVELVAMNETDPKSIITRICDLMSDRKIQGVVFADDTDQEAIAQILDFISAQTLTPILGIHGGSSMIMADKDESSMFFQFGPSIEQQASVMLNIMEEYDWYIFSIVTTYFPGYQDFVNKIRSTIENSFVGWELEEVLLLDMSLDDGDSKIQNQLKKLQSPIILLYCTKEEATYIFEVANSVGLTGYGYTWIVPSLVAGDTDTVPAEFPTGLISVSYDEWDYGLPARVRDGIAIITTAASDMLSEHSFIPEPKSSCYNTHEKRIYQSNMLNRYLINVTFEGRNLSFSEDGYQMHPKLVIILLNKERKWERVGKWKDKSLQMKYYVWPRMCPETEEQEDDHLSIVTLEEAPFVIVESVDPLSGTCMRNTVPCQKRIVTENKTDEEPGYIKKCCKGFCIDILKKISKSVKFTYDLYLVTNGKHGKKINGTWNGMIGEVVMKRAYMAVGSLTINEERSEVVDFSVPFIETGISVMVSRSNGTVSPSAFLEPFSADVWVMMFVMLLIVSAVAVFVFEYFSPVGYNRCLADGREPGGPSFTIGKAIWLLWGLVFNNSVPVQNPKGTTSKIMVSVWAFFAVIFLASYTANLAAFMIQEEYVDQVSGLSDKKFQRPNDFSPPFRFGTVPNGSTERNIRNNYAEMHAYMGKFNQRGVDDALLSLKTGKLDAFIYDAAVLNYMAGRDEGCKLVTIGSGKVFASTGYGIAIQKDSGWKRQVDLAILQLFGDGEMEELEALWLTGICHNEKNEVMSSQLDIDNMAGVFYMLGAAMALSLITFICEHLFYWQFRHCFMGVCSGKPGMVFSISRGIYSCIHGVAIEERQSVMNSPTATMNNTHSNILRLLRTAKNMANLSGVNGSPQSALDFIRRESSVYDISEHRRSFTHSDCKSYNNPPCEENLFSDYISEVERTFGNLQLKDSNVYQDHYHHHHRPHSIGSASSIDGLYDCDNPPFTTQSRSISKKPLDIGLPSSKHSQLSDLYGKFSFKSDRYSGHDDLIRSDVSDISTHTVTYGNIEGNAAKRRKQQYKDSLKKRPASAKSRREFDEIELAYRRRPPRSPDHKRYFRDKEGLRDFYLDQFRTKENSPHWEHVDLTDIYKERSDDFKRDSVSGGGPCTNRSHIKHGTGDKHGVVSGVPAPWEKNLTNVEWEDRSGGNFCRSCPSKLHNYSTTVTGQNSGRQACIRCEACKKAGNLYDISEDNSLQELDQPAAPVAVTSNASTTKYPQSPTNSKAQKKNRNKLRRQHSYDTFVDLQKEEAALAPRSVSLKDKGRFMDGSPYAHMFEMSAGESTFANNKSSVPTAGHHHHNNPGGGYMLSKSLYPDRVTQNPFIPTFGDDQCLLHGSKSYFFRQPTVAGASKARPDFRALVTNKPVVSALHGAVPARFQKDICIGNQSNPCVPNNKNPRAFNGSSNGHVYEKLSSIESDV

This experiment addresses cloned human NR1/NR2B ion channels (Homo sapiens (Human), UniProt Q05586+Q13224). As to the kind of experiment: HNR2BC: effects of test articles on cloned human NR1/NR2B ion channels expressed in mammalian cells (FLIPR calcium flux). The class given is cell-based. The settings on record: cloned human NR1/NR2B ion channels, Table 5. Put shortly: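 In a stable Tet-On-induced cell line expressing human GluN1/GluN2B, Calcium 5-loaded cells were preincubated 5 min with compound, then stimulated 5 min with glutamate at ~EC80 plus 10 μM glycine, in pH 7.4 HEPES buffer. FLIPR calcium fluorescence was normalized to control wells.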
For orientation: Calcium assays in cells follow changes in intracellular calcium, usually with a dye or a luminescent sensor.
Usually pIC50 stands for the negative decadic logarithm of the IC50, by convention in mol/L. With `CN(C)C(=O)Cn1cc(Cl)c2ncc(-c3ccc(Cl)s3)cc21` [Example 423, 2-[3-Chloro-6-(5-chloro-2-thienyl)pyrrolo[3,2-b]pyridin-1-yl]-N,N-dimethyl-acetamide], the pIC50 is 7.40.

Consider `CCc1ccc(-c2cnc3c(Cl)cn(CC(=O)N4CC(F)C4)c3c2)s1` [Example 424, 2-[3-Chloro-6-(5-ethyl-2-thienyl)pyrrolo[3,2-b]pyridin-1-yl]-1-(3-fluoroazetidin-1-yl)ethanone], for which the negative-log IC50 (pIC50) was 7.50.

As to `CN(C)C(=O)Cn1ccc2ncc(-c3cccc(C(F)(F)F)c3F)cc21` [Example 425, 2-[6-[2-Fluoro-3-(trifluoromethyl)phenyl]pyrrolo[3,2-b]pyridin-1-yl]-N,N-dimethyl-acetamide], the pIC50 is 6.50.

Regarding `Cc1cc(-c2cnc3ccn(CC(=O)N(C)C)c3c2)c(C)s1` [Example 427, 2-[6-(2,5-Dimethyl-3-thienyl)pyrrolo[3,2-b]pyridin-1-yl]-N,N-dimethyl-acetamide], the negative-log IC50 (pIC50) was 7.50.

With `Cc1sc(C)c(-c2cnc3ccn(CC(=O)N(C)C)c3c2)c1C` [Example 428, N,N-Dimethyl-2-[6-(2,4,5-trimethyl-3-thienyl)pyrrolo[3,2-b]pyridin-1-yl]acetamide], the pIC50 was 7.00.

Take `CN(C)C(=O)Cn1ccc2ncc(-c3ccc(F)cc3)cc21` [Example 430, 2-[6-(4-Fluorophenyl)pyrrolo[3,2-b]pyridin-1-yl]-N,N-dimethyl-acetamide]: the negative-log IC50 (pIC50) was 7.20.

Take `CN(C)C(=O)Cn1ccc2ncc(-c3ccccc3F)cc21` [Example 431, 2-[6-(2-Fluorophenyl)pyrrolo[3,2-b]pyridin-1-yl]-N,N-dimethyl-acetamide]: the negative-log IC50 (pIC50) is 6.60.

For the compound `Cc1cccc(-c2cnc3ccn(CC(=O)N(C)C)c3c2)c1F` [Example 432, 2-[6-(2-Fluoro-3-methyl-phenyl)pyrrolo[3,2-b]pyridin-1-yl]-N,N-dimethyl-acetamide], the pIC50 was 6.10.

As to `CN(C)C(=O)Cn1ccc2ncc(-c3ccccc3)cc21` [Example 433, N,N-Dimethyl-2-(6-phenylpyrrolo[3,2-b]pyridin-1-yl)acetamide], the negative-log IC50 (pIC50) is 7.60.

As for `CN(C)C(=O)Cn1ccc2ncc(-c3ccc(F)c(C(F)(F)F)c3)cc21` [Example 436, 2-[6-[4-Fluoro-3-(trifluoromethyl)phenyl]pyrrolo[3,2-b]pyridin-1-yl]-N,N-dimethyl-acetamide], the pIC50 is 7.10.

As for `CN(C)C(=O)Cn1ccc2ncc(-c3ccc(F)c(F)c3F)cc21` [Example 437, N,N-Dimethyl-2-[6-(2,3,4-trifluorophenyl)pyrrolo[3,2-b]pyridin-1-yl]acetamide], the negative-log IC50 (pIC50) was 6.50.

With `CN(C)C(=O)Cn1ccc2ncc(-c3csc(Cl)c3)cc21` [Example 439, 2-[6-(5-Chloro-3-thienyl)pyrrolo[3,2-b]pyridin-1-yl]-N,N-dimethyl-acetamide], the pIC50 was 7.30.

Regarding `CN(C)C(=O)Cn1ccc2ncc(-c3cc(Cl)sc3Cl)cc21` [Example 440, 2-[6-(2,5-Dichloro-3-thienyl)pyrrolo[3,2-b]pyridin-1-yl]-N,N-dimethyl-acetamide], the pIC50 was 6.90.

For `Cc1ccc(F)c(-c2cnc3ccn(CC(=O)N(C)C)c3c2)c1F` [Example 444, 2-[6-(2,6-Difluoro-3-methyl-phenyl)pyrrolo[3,2-b]pyridin-1-yl]-N,N-dimethyl-acetamide], the pIC50 was 6.20.

For `Cc1ccc(F)c(-c2cnc3ccn(CC(=O)N(C)C)c3c2)c1` [Example 445, 2-[6-(2-Fluoro-5-methyl-phenyl)pyrrolo[3,2-b]pyridin-1-yl]-N,N-dimethyl-acetamide], the pIC50 was 6.40.

Consider `O=C(Cn1ccc2ncc(-c3cccc(C(F)F)c3)cc21)N1CCC1` [Example 446, 1-(Azetidin-1-yl)-2-[6-[3-(difluoromethyl)phenyl]pyrrolo[3,2-b]pyridin-1-yl]ethanone], for which the negative logarithm of the IC50 (pIC50) was 7.00.
